Results on eight compounds are retold here after PubChem BioAssay (NCI).

Values joined by “and” are separate entries in the source; they are usually repeats but may differ in a detail not shown here. Identical values can stand only once.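 48-hour exposure; five concentrations; linearly interpolated endpoints. At the GI50, growth is halved. TGI marks complete inhibition of growth.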

Among the test systems are UACC-257 melanoma; SF-295 CNS; SN12C renal; LOX IMVI melanoma; SK-MEL-5 melanoma; NCI/ADR-RES ovarian; SW-620 colon; CCRF-CEM leukemia; BT-549 breast; PC-3 prostate.
Holding throughout (assay): NCI-60 cell line screen, 48 h

Consider `C=CC(=O)N1CC2(CC(n3nc(-c4ccc5c(cnn5C)c4)c(-c4c(Cl)c(C)cc5[nH]ncc45)c3C)C2)C1`, for which the GI50 in the test with UACC-257 melanoma was 2.16 µM; in the test on SF-295 CNS it was 2.16 µM; with SN12C renal it was 3.08 µM; in the test with LOX IMVI melanoma it was 1.69 µM; in the test with SK-MEL-5 melanoma it was 1.61 µM; in the test on NCI/ADR-RES ovarian, 2.23 µM. Moreover, the GI50 with SW-620 colon was 3.23 µM; in the test with CCRF-CEM leukemia, 2.67 µM; in the test on BT-549 breast, 2.57 µM; with PC-3 prostate it was 3.59 µM. Further, the TGI is 6.57 µM in the test with UACC-257 melanoma; 5.43 µM in the test with SF-295 CNS; 12.1 µM with SN12C renal; 3.55 µM in the test on LOX IMVI melanoma; 3.02 µM with SK-MEL-5 melanoma; 5.21 µM in the test on NCI/ADR-RES ovarian. Also, the TGI with SW-620 colon was determined as 10.3 µM; with CCRF-CEM leukemia, 14.8 µM; with BT-549 breast, 7.9 µM; in the test on PC-3 prostate, 22.8 µM.
Consider `COC(=O)C=Cc1ccc2nncnc2c1` (mixture of isomers), for which the TGI is 36.3 µM in the test on UACC-257 melanoma; 64.3 µM in the test on SF-295 CNS; more than 100 µM in the test with SN12C renal; more than 100 µM with LOX IMVI melanoma; 20.8 µM with SK-MEL-5 melanoma; more than 100 µM in the test on NCI/ADR-RES ovarian. For the same compound, the TGI in the test with SW-620 colon, with CCRF-CEM leukemia, in the test with BT-549 breast and in the test on PC-3 prostate was more than 100 µM throughout.
On to `c1cc2c(cn1)Nc1ccncc1S2`, for which the GI50 in the test on UACC-257 melanoma was 71.5 µM; with SF-295 CNS it was 52.7 µM; in the test with SN12C renal it was 69.4 µM; with LOX IMVI melanoma, 33.2 µM; in the test with SK-MEL-5 melanoma it was 36.3 µM; in the test with NCI/ADR-RES ovarian, 37.1 µM. Besides, the GI50 in the test on SW-620 colon was 35.4 µM; in the test on CCRF-CEM leukemia it was 37.3 µM; in the test with BT-549 breast, 59.5 µM; in the test with PC-3 prostate, 41.7 µM. The TGI with UACC-257 melanoma, in the test on SF-295 CNS, in the test with SN12C renal, in the test on LOX IMVI melanoma, in the test with SK-MEL-5 melanoma and in the test with NCI/ADR-RES ovarian was more than 100 µM throughout. The TGI in the test with SW-620 colon, with CCRF-CEM leukemia, in the test with BT-549 breast and in the test with PC-3 prostate was more than 100 µM throughout.
For the compound `N#CC1c2ccccc2C=CN1C(=O)N(c1ccccc1)c1ccccc1` (stereo not drawn), the GI50 is 2.29 µM with UACC-257 melanoma; 12.6 µM in the test on SF-295 CNS; 3 µM with SN12C renal; 2.04 µM with LOX IMVI melanoma; 4.03 µM with SK-MEL-5 melanoma; 5.52 µM in the test on NCI/ADR-RES ovarian. Besides, the GI50 in the test with SW-620 colon is 2.27 µM; with CCRF-CEM leukemia it was 2.97 µM; in the test with BT-549 breast, 8.68 µM; with PC-3 prostate, 9.82 µM. Besides, the TGI with UACC-257 melanoma amounted to 6.2 µM; with SF-295 CNS, 25.2 µM; with SN12C renal it was 10.8 µM; with LOX IMVI melanoma it was 4.61 µM; in the test on SK-MEL-5 melanoma, 14.8 µM; with NCI/ADR-RES ovarian it was 34 µM. Further, the TGI with SW-620 colon amounted to 5.3 µM; with CCRF-CEM leukemia, 8.99 µM; in the test on BT-549 breast, 21.2 µM; in the test on PC-3 prostate, 25.3 µM.
With `COC(=O)c1ccc(NC(=O)Oc2ccc(N(CCCl)CCCl)cc2)cc1`, the GI50 in the test with UACC-257 melanoma is 7.73 µM; in the test on SF-295 CNS, 1.38 µM; in the test on SN12C renal, 2.97 µM; with LOX IMVI melanoma it was 3.69 µM; with SK-MEL-5 melanoma it was 13.1 µM; with NCI/ADR-RES ovarian it was 6.54 µM. Further, the GI50 with SW-620 colon is 4.89 µM; in the test on CCRF-CEM leukemia it was 0.782 µM; in the test with BT-549 breast, 10.2 µM; in the test with PC-3 prostate, 11.4 µM. The TGI with UACC-257 melanoma was 99.7 µM; in the test on SF-295 CNS it was 11.4 µM; with SN12C renal, 94.1 µM; with LOX IMVI melanoma, more than 100 µM; with SK-MEL-5 melanoma, more than 100 µM; in the test with NCI/ADR-RES ovarian, 53.8 µM. In addition, the TGI in the test with SW-620 colon, with CCRF-CEM leukemia, in the test with BT-549 breast and in the test with PC-3 prostate was more than 100 µM in each case.
On to `CCOC(=O)COc1ccc2c(C)cc(=O)oc2c1`, for which the TGI in the test with UACC-257 melanoma, in the test with SF-295 CNS, in the test with SN12C renal, in the test on LOX IMVI melanoma, with SK-MEL-5 melanoma and in the test with NCI/ADR-RES ovarian was more than 100 µM in each case. Also, the TGI with SW-620 colon, in the test with CCRF-CEM leukemia, in the test on BT-549 breast and with PC-3 prostate was more than 100 µM in each case.
As for `CC[C@H](C)[C@H](NC(=O)[C@H]1CCCCN1C)C(=O)N(C)[C@H](C[C@@H](OC(C)=O)c1nc(C(=O)N[C@@H](Cc2ccccc2)C[C@H](C)C(=O)O)cs1)C(C)C`, the GI50 in the test on UACC-257 melanoma was more than 16.5 µM; with SF-295 CNS it was 0.000305 µM and < 0.00165 µM; in the test on SN12C renal, 0.003 µM and 0.00165 µM; in the test with LOX IMVI melanoma, 0.000609 µM and 0.00165 µM; in the test on SK-MEL-5 melanoma, 0.00013 µM and < 0.00165 µM; with NCI/ADR-RES ovarian, 0.00473 µM and 0.00165 µM. The GI50 is 0.000332 µM and 0.00165 µM in the test with SW-620 colon; 0.000392 µM and 0.00165 µM in the test with CCRF-CEM leukemia; 0.000676 µM and < 0.00165 µM in the test on BT-549 breast; 0.000339 µM and 0.00165 µM with PC-3 prostate. Besides, the TGI in the test with UACC-257 melanoma is more than 16.5 µM; with SF-295 CNS, 0.00282 µM and < 0.00165 µM; in the test on SN12C renal, more than 16.5 µM; with LOX IMVI melanoma it was more than 16.5 µM; in the test on SK-MEL-5 melanoma it was 0.0102 µM and < 0.00165 µM; in the test on SW-620 colon, more than 16.5 µM. The TGI was 2.49 µM in the test with CCRF-CEM leukemia and more than 16.5 µM in the test on PC-3 prostate.
For the compound `COc1ccc(/C(C#N)=C2C=C/C(=N/O)c3ccccc3\2)cc1`, the GI50 with UACC-257 melanoma was 10.5 µM; in the test on SF-295 CNS, 0.687 µM; in the test with SN12C renal it was 0.418 µM; in the test with LOX IMVI melanoma, 0.382 µM; with SK-MEL-5 melanoma, 0.323 µM; in the test with NCI/ADR-RES ovarian it was 0.125 µM. In addition, the GI50 in the test with SW-620 colon was 0.262 µM; in the test with CCRF-CEM leukemia, 0.254 µM; in the test on BT-549 breast, 0.333 µM; in the test on PC-3 prostate it was 0.322 µM. Besides, the TGI with UACC-257 melanoma came out at 22.7 µM; in the test on SF-295 CNS it was 13 µM; in the test on SN12C renal, 13.5 µM; in the test on LOX IMVI melanoma, 14.7 µM; in the test on SK-MEL-5 melanoma it was 1.26 µM; in the test on NCI/ADR-RES ovarian, 2.94 µM. Moreover, the TGI was 14.4 µM in the test on SW-620 colon, 12.6 µM in the test on CCRF-CEM leukemia, 8.18 µM with BT-549 breast and 15.7 µM in the test on PC-3 prostate.
